From US8492559B2, “Substituted indole compounds” (Gruenenthal GmbH, priority 2009, dated 2013)

Target: T1, B1R receptor of the rat (rB1R) (Rattus norvegicus, UniProt P97583)
T1 construct: expressed in transfected cells; host or cells: CHO K1 cells
T1 sequence (P97583 1-337): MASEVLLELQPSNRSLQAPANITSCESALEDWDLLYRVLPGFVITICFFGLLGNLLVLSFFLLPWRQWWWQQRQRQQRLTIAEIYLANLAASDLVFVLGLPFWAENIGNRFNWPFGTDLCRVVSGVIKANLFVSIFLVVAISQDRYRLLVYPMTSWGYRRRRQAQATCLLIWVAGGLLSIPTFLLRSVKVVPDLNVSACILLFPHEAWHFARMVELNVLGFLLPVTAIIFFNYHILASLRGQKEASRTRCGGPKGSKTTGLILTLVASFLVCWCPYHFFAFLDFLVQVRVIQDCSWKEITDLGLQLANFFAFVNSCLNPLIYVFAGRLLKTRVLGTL
Assay: Functional investigation on the bradykinin 1 receptor (B1R), FLIPR Ca2+ assay, rB1R cells
Type: cell-based
Settings: CHO K1 cells with rat B1R, agonist Des-Arg9 bradykinin, % of maximum achievable inhibition; for inhibition at 10 µM: CHO-K1, 10 μM test substance, read-out: B1R antagonism, rat [10 μM] % inhibition; for B1R antagonism, rat [10 μM] % inhibition: 10 μM test substance
How it was run: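 Ca2+ influx is measured as peak Fluo-4 fluorescence in a FLIPR protocol with two substance additions, following Lys-Des-[MUT] bradykinin (0.5 nM) or Des-[MUT] bradykinin (100 nM) challenge. Varying antagonist concentrations give % inhibition relative to maximum achievable and an IC50. Determinations in duplicate or triplicate, repeated independently (N>=2).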

| Compound | inhibition at 10 µM [%] | B1R antagonism, rat [10 μM] % inhibition [%] |
| --- | --- | --- |
| COc1cc(C)c(S(=O)(=O)Nc2cccc3ccn(CCC(=O)N4CCN(CC5CCN(C)CC5)CC4)c23)c(C)c1 [G_CC-43, 4-Methoxy-2,6-dimethyl-N-[1-[3-[4-[(1-methyl-piperidin-4-yl)-methyl]-piperazin-1-yl]-3-oxo-propyl]-1H-indol-7-yl]-benzenesulfonic acid amide] | 103 |  |
| Cc1cc(S(=O)(=O)Nc2cccc3ccn(CCC(=O)N4CCN(CC5CCN(C)CC5)CC4)c23)c(C)cc1Cl [G_CC-62, 4-Chloro-2,5-dimethyl-N-[1-[3-[4-[(1-methyl-piperidin-4-yl)-methyl]-piperazin-1-yl]-3-oxo-propyl]-1H-indol-7-yl]-benzenesulfonic acid amide] | 99 |  |
| COc1cc(C)c(S(=O)(=O)Nc2ccc3ccn(CC(=O)N4CCC(N5CCN(C)CC5)CC4)c3c2)c(C)c1 [G_CC-2, 4-Methoxy-2,6-dimethyl-N-[1-[2-[4-(4-methyl-piperazin-1-yl)-piperidin-1-yl]-2-oxo-ethyl]-1H-indol-6-yl]-benzenesulfonic acid amide] | 70 |  |
| COc1cc(C)c(S(=O)(=O)Nc2cccc3ccn(CC(=O)N4CCC5(CC4)CCN(c4ccncc4)CC5)c23)c(C)c1 [Compound G-05, 4-Methoxy-2,6-dimethyl-N-[1-[2-oxo-2-(9-pyridin-4-yl-3,9-diazaspiro[5.5]undecan-3-yl)-ethyl]-1H-indol-7-yl]-benzenesulfonic acid amide] |  | 96 |
| O=C(Cn1ccc2cccc(N3Cc4cccc(Cl)c4C3=O)c21)N1CCC2(CC1)CCN(c1ccncc1)CC2 [Compound G-11, 7-Chloro-2-(1-(2-oxo-2-(9-(pyridin-4-yl)-3,9-diazaspiro[5.5]undecan-3-yl)ethyl)-1H-indol-7-yl)isoindolin-1-one] | -21 |  |
| Cc1ccc2n1C(=O)N(c1ccc3ccn(CC(=O)N4CCC5(CC4)CCN(c4ccncc4)CC5)c3c1)C2 [Compound G-27, 5-Methyl-2-[1-[2-oxo-2-(9-pyridin-4-yl-3,9-diazaspiro[5.5]undecan-3-yl)-ethyl]-1H-indol-6-yl]-1,2-dihydro-pyrrolo[2,1-e]imidazol-3-one] | 99 |  |
| COc1cc(C)c(S(=O)(=O)Nc2cccc3ccn(CC(=O)N4CCC5(CCN(c6ccncc6)CC5)C4)c23)c(C)c1 [Compound G-14, 4-Methoxy-2,6-dimethyl-N-(1-(2-oxo-2-(8-(pyridin-4-yl)-2,8-diazaspiro[4.5]decan-2-yl)ethyl)-1H-indol-7-yl)benzenesulfonic acid amide] | 96 |  |
| Cn1c2c(c3c(Cl)cccc31)C(=O)N(c1ccc3ccn(CC(=O)N4CCC5(CC4)CCN(c4ccncc4)CC5)c3c1)C2 [Compound G-23, 8-Chloro-4-methyl-2-[1-[2-oxo-2-(9-pyridin-4-yl-3,9-diazaspiro[5.5]undecan-3-yl)-ethyl]-1H-indol-6-yl]-3,4-dihydro-2H-pyrrolo[3,4-b]indol-1-one] | 106 |  |
| O=C(Cn1ccc2ccc(N3Cc4cccc(Cl)c4C3=O)cc21)N1CCC2(CC1)CCN(c1ccncc1)CC2 [Compound G-08, 7-Chloro-2-[1-[2-oxo-2-(9-pyridin-4-yl-3,9-diazaspiro[5.5]undecan-3-yl)-ethyl]-1H-indol-6-yl]-2,3-dihydro-isoindol-1-one] | 97 |  |
| COc1cc(C)c(S(=O)(=O)Nc2cccc3ccn(CC(=O)N4CCC(OCCN5CCCC5)(c5cccnc5)CC4)c23)c(C)c1 [Compound G-06, 4-Methoxy-2,6-dimethyl-N-[1-[2-oxo-2-[4-pyridin-3-yl-4-(2-pyrrolidin-1-yl-ethoxy)-piperidin-1-yl]-ethyl]-1H-indol-7-yl]-benzenesulfonic acid amide] | 70 |  |
| COc1cc(C)c(S(=O)(=O)Nc2cccc3ccn(CC(=O)N4CCC(N5CCc6cc(CN7CCCCC7)ccc6C5)C4)c23)c(C)c1 (stereo not shown) [Compound G-16, 4-Methoxy-2,6-dimethyl-N-(1-(2-oxo-2-(3-(6-(piperidin-1-ylmethyl)-3,4-dihydroisoquinolin-2(1H)-yl)pyrrolidin-1-yl)ethyl)-1H-indol-7-yl)benzenesulfonic acid amide] | 96 |  |
| COc1cc(C)c(S(=O)(=O)Nc2cccc3ccn(CC(=O)N4CCC5(CC4)C(=O)NCN5c4ccccc4)c23)c(C)c1 [Compound G-04, 4-Methoxy-2,6-dimethyl-N-[1-[2-oxo-2-(1-oxo-4-phenyl-2,4,8-triazaspiro[4.5]decan-8-yl)-ethyl]-1H-indol-7-yl]-benzenesulfonic acid amide] | 62 |  |
| COc1cc(C)c(S(=O)(=O)Nc2ccc3ccn(CC(=O)N(C)CCCN4CCN(c5ccncc5)CC4)c3c2)c(C)c1 [G_CC-76, 2-[6-[[(4-Methoxy-2,6-dimethyl-phenyl)sulfonyl]amino]-1H-indol-1-yl]-N-methyl-N-[3-(4-pyridin-4-yl-piperazin-1-yl)-propyl]-acetamide] | 104 |  |
| COc1cc(C)c(S(=O)(=O)Nc2cccc3ccn(CC(=O)N4CCC5(CC4)CCN(c4ccncc4)CC5)c23)c(C)c1 [G_CC-91, 4-Methoxy-2,6-dimethyl-N-[1-[2-oxo-2-(3-pyridin-4-yl-3,9-diazaspiro-[5.5]undecan-9-yl)-ethyl]-1H-indol-7-yl]-benzenesulfonic acid amide] | 100 |  |
| O=C(Cn1ccc2ccc(N3CCn4c(c(Cl)c5ccccc54)C3=O)cc21)N1CCC2(CC1)CCN(c1ccncc1)CC2 [Compound G-31, 10-Chloro-2-[1-[2-oxo-2-(9-pyridin-4-yl-3,9-diazaspiro[5.5]undecan-3-yl)-ethyl]-1H-indol-6-yl]-3,4-dihydro-2H-pyrazino[1,2-a]indol-1-one] | 54 |  |
| COc1cc(C)c(S(=O)(=O)NCc2cccc3ccn(CC(=O)N4CCC5(CC4)CCN(c4ccncc4)CC5)c23)c(C)c1 [Compound G-24, 4-Methoxy-2,6-dimethyl-N-[[1-[2-oxo-2-(9-pyridin-4-yl-3,9-diazaspiro[5.5]undecan-3-yl)-ethyl]-1H-indol-7-yl]-methyl]-benzenesulfonic acid amide] | 103 |  |
| COc1cc(C)c(S(=O)(=O)Nc2cccc3ccn(CC(=O)N(C)CCCN4CCN(c5ccncc5)CC4)c23)c(C)c1 [G_CC-88, 2-[7-[[(4-Methoxy-2,6-dimethyl-phenyl)sulfonyl]amino]-1H-indol-1-yl]-N-methyl-N-[3-(4-pyridin-4-yl-piperazin-1-yl)-propyl]-acetamide] | 101 |  |
| O=C(CCn1ccc2cccc(N3Cc4cccc(Cl)c4C3=O)c21)N1CCC2(CC1)CCN(c1ccncc1)CC2 [Compound G-10, 7-Chloro-2-(1-(3-oxo-3-(9-(pyridin-4-yl)-3,9-diazaspiro[5.5]undecan-3-yl)propyl)-1H-indol-7-yl)isoindolin-1-one] |  | 76 |
| Cc1cccc2c1C(=O)N(c1ccc3ccn(CC(=O)N4CCC5(CC4)CCN(c4ccncc4)CC5)c3c1)C2 [Compound G-26, 7-Methyl-2-[1-[2-oxo-2-(9-pyridin-4-yl-3,9-diazaspiro[5.5]undecan-3-yl)-ethyl]-1H-indol-6-yl]-2,3-dihydro-isoindol-1-one] | 102 |  |
| O=C(Cn1ccc2ccc(N3Cc4cccc(Cl)c4C3=O)cc21)N1CCC2(CCC(N3CC(F)(F)C3)CC2)CC1 [Compound G-20, 7-Chloro-2-(1-(2-(9-(3,3-difluoroazetidin-1-yl)-3-azaspiro[5.5]undecan-3-yl)-2-oxoethyl)-1H-indol-6-yl)isoindolin-1-one] | 13 |  |
| O=C(Cn1ccc2ccc(N3Cc4cccc(Cl)c4C3=O)cc21)N1CCC2(CCC(Oc3ccncc3)CC2)CC1 [Compound G-19, 7-Chloro-2-(1-(2-oxo-2-(9-(pyridin-4-yloxy)-3-azaspiro[5.5]undecan-3-yl)ethyl)-1H-indol-6-yl)isoindolin-1-one] | 94 |  |
| O=C(Cn1ccc2ccc(N3Cc4cccc(Cl)c4C3=O)cc21)N1CCC2(CCN(c3ccncc3)CC2)C1 [Compound G-12, 7-Chloro-2-(1-(2-oxo-2-(8-(pyridin-4-yl)-2,8-diazaspiro[4.5]decan-2-yl)ethyl)-1H-indol-6-yl)isoindolin-1-one] | 92 |  |
| COc1cc(C)c(S(=O)(=O)Nc2cccc3ccn(CC(=O)N4CCC5(CCC(Oc6ccncc6)CC5)CC4)c23)c(C)c1 [Compound G-22, 4-Methoxy-2,6-dimethyl-N-(1-(2-oxo-2-(9-(pyridin-4-yloxy)-3-azaspiro[5.5]undecan-3-yl)ethyl)-1H-indol-7-yl)benzenesulfonic acid amide] | 99 |  |
| COc1cc(C)c(S(=O)(=O)Nc2cccc3ccn(CCC(=O)NCCC4CCN(c5ccncc5)CC4)c23)c(C)c1 [G_CC-47, 3-[7-[[(4-Methoxy-2,6-dimethyl-phenyl)sulfonyl]amino]-1H-indol-1-yl]-N-[2-(1-pyridin-4-yl-piperidin-4-yl)-ethyl]-propionamide] | 102 |  |
| O=C(Cn1ccc2ccc(N3CCn4ccc(Cl)c4C3=O)cc21)N1CCC2(CC1)CCN(c1ccncc1)CC2 [Compound G-33, 8-Chloro-2-[1-[2-oxo-2-(9-pyridin-4-yl-3,9-diazaspiro[5.5]undecan-3-yl)-ethyl]-1H-indol-6-yl]-3,4-dihydro-2H-pyrrolo[1,2-a]pyrazin-1-one] | 46 |  |
